Reference: US20220388964A1 (HiberCell, Inc., priority 2019, published 2022)

target: GCN2 (Homo sapiens, UniProt Q9P2K8); test: TR-FRET biochemical assay for inhibition of GCN2 (Example 106, for Example 1-4BB); details: Table 8
Sequence (Q9P2K8 whole entry): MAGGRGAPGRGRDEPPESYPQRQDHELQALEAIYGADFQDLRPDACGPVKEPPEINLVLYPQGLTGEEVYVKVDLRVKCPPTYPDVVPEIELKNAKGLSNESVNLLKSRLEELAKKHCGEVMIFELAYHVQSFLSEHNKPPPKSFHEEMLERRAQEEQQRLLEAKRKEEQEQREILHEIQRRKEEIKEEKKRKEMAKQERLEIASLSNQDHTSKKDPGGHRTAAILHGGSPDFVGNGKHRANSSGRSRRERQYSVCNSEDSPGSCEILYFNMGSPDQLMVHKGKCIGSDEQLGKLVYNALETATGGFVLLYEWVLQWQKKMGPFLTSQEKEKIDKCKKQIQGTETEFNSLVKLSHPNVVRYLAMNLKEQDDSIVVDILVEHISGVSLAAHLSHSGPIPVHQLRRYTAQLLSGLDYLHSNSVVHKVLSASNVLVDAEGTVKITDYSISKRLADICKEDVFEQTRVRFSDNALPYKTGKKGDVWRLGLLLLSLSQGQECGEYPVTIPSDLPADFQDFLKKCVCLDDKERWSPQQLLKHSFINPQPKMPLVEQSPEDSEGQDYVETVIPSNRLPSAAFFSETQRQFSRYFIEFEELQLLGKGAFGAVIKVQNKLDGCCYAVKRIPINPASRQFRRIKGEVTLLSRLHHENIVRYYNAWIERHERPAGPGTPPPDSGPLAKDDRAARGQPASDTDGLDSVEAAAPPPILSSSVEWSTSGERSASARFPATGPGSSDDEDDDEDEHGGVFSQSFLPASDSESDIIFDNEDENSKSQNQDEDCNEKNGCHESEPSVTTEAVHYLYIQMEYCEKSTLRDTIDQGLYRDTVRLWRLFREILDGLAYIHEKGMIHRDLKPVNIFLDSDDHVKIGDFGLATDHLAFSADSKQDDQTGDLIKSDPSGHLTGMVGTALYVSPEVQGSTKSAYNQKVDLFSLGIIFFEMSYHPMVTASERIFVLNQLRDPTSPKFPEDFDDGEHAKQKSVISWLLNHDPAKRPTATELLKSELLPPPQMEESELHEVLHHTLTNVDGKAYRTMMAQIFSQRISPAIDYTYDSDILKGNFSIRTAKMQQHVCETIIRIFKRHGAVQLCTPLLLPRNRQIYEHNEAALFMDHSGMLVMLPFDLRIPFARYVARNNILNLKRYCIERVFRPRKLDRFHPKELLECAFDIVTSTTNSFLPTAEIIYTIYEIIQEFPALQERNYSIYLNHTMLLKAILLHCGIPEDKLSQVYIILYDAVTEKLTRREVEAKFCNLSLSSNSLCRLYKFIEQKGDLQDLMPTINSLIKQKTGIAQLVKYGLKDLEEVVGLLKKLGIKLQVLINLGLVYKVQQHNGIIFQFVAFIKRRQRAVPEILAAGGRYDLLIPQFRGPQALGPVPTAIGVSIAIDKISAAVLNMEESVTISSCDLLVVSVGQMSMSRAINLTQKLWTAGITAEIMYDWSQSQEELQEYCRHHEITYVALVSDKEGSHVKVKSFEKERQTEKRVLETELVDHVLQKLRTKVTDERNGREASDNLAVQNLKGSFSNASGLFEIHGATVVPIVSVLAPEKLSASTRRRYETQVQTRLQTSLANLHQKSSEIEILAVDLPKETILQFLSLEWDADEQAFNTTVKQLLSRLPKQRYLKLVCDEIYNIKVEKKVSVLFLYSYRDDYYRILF

IC50 [nM] | SMILES
500 to 2500 | COc1cccc(S(=O)(=O)Nc2ccc(F)c(-c3ccc4c(-c5ncc[nH]5)n[nH]c4c3F)c2F)c1C [Example 2AR, N-(2,4-difluoro-3-(7-fluoro-3-(1H-imidazol-2-yl)-1H-indazol-6-yl)phenyl)-3-methoxy-2-methylbenzene-sulfonamide]
> 10000 | Cc1oncc1S(=O)(=O)Nc1ccc(F)c(-c2ccc3c(-c4ncc[nH]4)n[nH]c3c2F)c1F [Example 2AE, N-(2,4-difluoro-3-(7-fluoro-3-(1H-imidazol-2-yl)-1H-indazol-6-yl)phenyl)-5-methylisoxazole-4-sulfonamide]
< 500 | Cc1ncc(F)cc1S(=O)(=O)Nc1ccc(F)c(-c2ccc3c(-c4ncc[nH]4)n[nH]c3c2F)c1F [Example 2AB, N-(2,4-difluoro-3-(7-fluoro-3-(1H-imidazol-2-yl)-1H-indazol-6-yl)phenyl)-5-fluoro-2-methylpyridine-3-sulfonamide]
< 500 | O=S(=O)(Nc1ccc(F)c(-c2ccc3c(-c4ncc[nH]4)n[nH]c3c2F)c1F)c1cc(Cl)ccc1CO [Example 2BW, 5-chloro-N-(2,4-difluoro-3-(7-fluoro-3-(1H-imidazol-2-yl)-1H-indazol-6-yl)phenyl)-2-(hydroxyl-methyl)benzene-sulfonamide]
< 500 | COc1ncc(F)cc1S(=O)(=O)Nc1ccc(F)c(-c2ccc3c(-c4ncc[nH]4)n[nH]c3c2F)c1F [Example 2V, 5-fluoro-N-(2,4-difluoro-3-(7-fluoro-3-(1H-imidazol-2-yl)-1H-indazol-6-yl)phenyl)-2-methoxy-pyridine-3-sulfonamide]
500 to 2500 | O=S(=O)(Nc1ccc(F)c(-c2ccc3cn[nH]c3c2)c1F)c1cc(Cl)ccc1Cl [Example 2BX, 2,5-dichloro-N-(2,4-difluoro-3-(1H-indazol-6-yl)phenyl)benzenesulfonamide]

same assay, conditions: Table 9

SMILES | IC50 [nM]
COc1ncc(F)cc1S(=O)(=O)Nc1cc(F)cc(-c2ccc3c(C(=O)N[C@@H]4CCN(C)C4)n[nH]c3c2F)c1F [Example 3BS, 6-(3-((5-fluoro-2-methoxy-pyridine)-3-sulfonamido)-2,5-difluorophenyl)-7-fluoro-N-((R)-1-methylpyrrolidin-3-yl)-1H-indazole-3-carboxamide] | < 500
Cc1ncc(F)cc1S(=O)(=O)Nc1ccc(F)c(-c2ccc3c(C(=O)Nc4cnoc4)n[nH]c3c2F)c1F [Example 3DQ, 6-(2,6-difluoro-3-((5-fluoro-2-methylpyridine)-3-sulfonamido)phenyl)-7-fluoro-N-(isoxazol-4-yl)-1H-indazole-3-carboxamide] | < 500
O=C1CCc2c1cc(F)cc2S(=O)(=O)Nc1ccc(F)c(-c2ccc3c(C(=O)NCCCO)n[nH]c3c2F)c1F [Example 4U] | < 500
Cc1ccc(S(=O)(=O)Nc2ccc(F)c(-c3ccc4c(C(=O)Nc5cnoc5)n[nH]c4c3F)c2F)c(C)n1 [Example 3DG, 6-(3-((2,6-dimethylpyridine)-3-sulfonamido)-2,6-difluoro-phenyl)-7-fluoro-N-(isoxazol-4-yl)-1H-indazole-3-carboxamide] | < 500
COc1nc(C)c(Cl)cc1S(=O)(=O)Nc1ccc(F)c(-c2ccc3c(-c4ncc[nH]4)n[nH]c3c2F)c1F [Example 3DD, 5-chloro-N-(2,4-difluoro-3-(7-fluoro-3-(1H-imidazol-2-yl)-1H-indazol-6-yl)phenyl)-2-methoxy-6-methylpyridine-3-sulfonamide] | < 500
NC(=O)c1n[nH]c2c(F)c(-c3c(F)ccc(NS(=O)(=O)c4cc(F)cc5c4CCC5O)c3F)ccc12 (stereo not shown) [Example 4R] | < 500
COc1ncccc1S(=O)(=O)Nc1ccc(F)c(-c2ccc3c(C(=O)NCCCO)n[nH]c3c2F)c1F [Example 3BI, 6-(2,6-difluoro-3-((2-methoxypyridine)-3-sulfonamido)phenyl)-7-fluoro-N-(3-hydroxypropyl)-1H-indazole-3-carboxamide] | 500 to 2500
Cc1ncc(F)cc1S(=O)(=O)Nc1ccc(F)c(-c2ccc3c(C(=O)NCCCO)n[nH]c3c2F)c1F [Example 3AZ, 6-(2,6-difluoro-3-((5-fluoro-2-methylpyridine)-3-sulfonamido)phenyl)-7-fluoro-N-(3-hydroxypropyl)-1H-indazole-3-carboxamide] | < 500
COc1ncc(F)cc1S(=O)(=O)Nc1cc(F)cc(-c2ccc3c(C(=O)NCCCO)n[nH]c3c2F)c1F [Example 3AP, 6-(2,5-difluoro-3-((5-fluoro-2-methoxypyridine)-3-sulfon-amido)phenyl)-7-fluoro-N-(3-hydroxypropyl)-1H-indazole-3-carboxamide] | < 500
COc1ncccc1S(=O)(=O)Nc1nccc(-c2ccc3c(-c4ncc[nH]4)n[nH]c3c2F)c1C#N [Example 3J, N-(3-cyano-4-(7-fluoro-3-(1H-imidazol-2-yl)-1H-indazol-6-yl)pyridin-2-yl)-2-methoxypyridine-3-sulfonamide] | 2500 to 10000
COc1ncc(F)cc1S(=O)(=O)Nc1cccc(-c2ccc3c(C(N)=O)n[nH]c3c2F)c1F [Example 3AN, 7-fluoro-6-(2-fluoro-3-((5-fluoro-2-methoxypyridine)-3-sulfonamido)phenyl)-1H-indazole-3-carboxamide] | < 500
COc1ncc(C#N)cc1S(=O)(=O)Nc1ccc(F)c(-c2ccc3c(C(=O)NCCCO)n[nH]c3c2F)c1F [Example 4C] | 500 to 2500

Other lines, results leading:

IC50 [nM] | SMILES
500 to 2500 | COc1ncccc1S(=O)(=O)Nc1ccc(F)c(-c2ccc3c(C(N)=O)n[nH]c3c2F)c1F [Example 3BJ, 6-(2,6-difluoro-3-((2-methoxypyridine)-3-sulfonamido)phenyl)-7-fluoro-1H-indazole-3-carboxamide]
< 500 | COc1ncc(Cl)cc1S(=O)(=O)Nc1c(F)ccc(-c2ccc3c(-c4ncc[nH]4)n[nH]c3c2F)c1F [Example 3A, 5-chloro-N-(2,6-difluoro-3-(7-fluoro-3-(1H-imidazol-2-yl)-1H-indazol-6-yl)phenyl)-2-methoxypyridine-3-sulfonamide]
< 500 | COc1ncc(Cl)cc1S(=O)(=O)Nc1cc(F)cc(-c2ccc3c(C(=O)NCCCN(C)C)n[nH]c3c2F)c1F [Example 3BB, 6-(3-((5-chloro-2-methoxy-pyridine)-3-sulfonamido)-2,5-difluorophenyl)-N-(3-(dimethylamino)propyl)-7-fluoro-1H-indazole-3-carboxamide]
< 500 | NC(=O)c1n[nH]c2c(F)c(-c3c(F)ccc(NS(=O)(=O)c4cc(F)cc(CO)c4Cl)c3F)ccc12 [Example 4AB]
> 10000 | COc1ncc(F)cc1S(=O)(=O)Nc1cc(C#N)cc(-c2ccc3c(-c4ncc[nH]4)n[nH]c3c2F)c1F [Example 3CB, N-(5-cyano-2-fluoro-3-(7-fluoro-3-(1H-imidazol-2-yl)-1H-indazol-6-yl)phenyl)-5-fluoro-2-methoxypyridine-3-sulfonamide]
< 500 | COc1ncc(F)cc1S(=O)(=O)Nc1cc(F)cc(-c2ccc3c(C(=O)NCCCN(C)C)n[nH]c3c2F)c1F [Example 3BK, 6-(3-((5-fluoro-2-methoxy-pyridine)-3-sulfonamido)-2,5-difluorophenyl)-N-(3-(dimethylamino)propyl)-7-fluoro-1H-indazole-3-carboxamide]
< 500 | COc1ncc(F)cc1S(=O)(=O)Nc1ccc(F)c(-c2ccc3c(C(=O)Nc4ccc(=O)n(C)c4)n[nH]c3c2F)c1F [Example 3BP, 6-(2,6-difluoro-3-((5-fluoro-2-methoxypyridine)-3-sulfonamido)phenyl)-7-fluoro-N-(1-methyl-6-oxo-1,6-dihydropyridin-3-yl)-1H-indazole-3-carboxamide]
